Reference: patent US20230295152A1 (SENDA BIOSCIENCES, INC., priority 2019, published 2023)
Converted amounts (≈) assume the structure as drawn. Like-named read-outs stand apart in the source and are kept apart here.

What was measured:
[1] = Solubility Determination Assay in PBS pH 1.6 and pH 7.4; format: physicochemical; conditions: PBS buffer, aqueous buffer, kinetic from dmso stock
How it was run: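 Compounds from 10 mM DMSO stock diluted into PBS pH 1.6 or pH 7.4 (15 μL into 485 μL), stirred 2 hours, then filtered. Filtrate quantified by LC-MS/MS against a standard of known concentration with internal standard; single determination.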

[2] = Hepatocyte Stability Assay, human; format: in vitro ADME; conditions: cryopreserved hepatocytes in suspension; human hepatocytes; read-out: Human hepatocyte clearance
Description: • Preparation of working solutions: 10 mM stock solutions of test compound and positive control were prepared in DMSO. In separate conical tubes, the 10 mM solution of test compound and the positive control were diluted to 100 μM by combining 198 μL of 50% acetonitrile/50% water and 2 μL of 10 mM stock.
Preparation of Hepatocytes: Incubation medium (William's E Medium supplemented with GlutaMAX) and hepatocyte thawing medium were placed in a 37° C. water bath and allowed warming for at least 15 minutes prior to use. A vial of cryopreserved hepatocytes was transferred from storage, ensuring that vials remained at cryogenic temperatures until thawing process ensued. Cells were thawed by placing the vial in a 37° C. water bath and gently shaking the vials for 2 minutes. After thawing was completed, vial was sprayed with 70% ethanol and transferred to a biosafety cabinet. Wide-bore pipette tip were used to transfer hepatocytes into 50 mL conical tube containing thawing medium. The 50 mL conical tube were placed into a centrifuge and spun at 100 g for 10 minutes. Upon completion of spin, thawing medium was aspirated and resuspended hepatocytes in enough incubation medium to yield ˜1.5×10^6 cells/mL. Using an AO/PI Staining, cells were counted and the viable cell density was determined. Cells with poor viability (<75% viability) were determined to be not acceptable for use. Cells were diluted with incubation medium to a working cell density of 0.5×10^6 viable cells/mL.
Procedure for Stability Determination: 198 μL of hepatocytes were pipetted into each wells of a 96-well non-coated plate. The plate was placed in the incubator to allow the hepatocytes to warm for 10 minutes. 2 μL of the 100 μM test compound or positive control solutions were pipetted into respective wells of the 96-well non-coated plate to start the reaction. The plate was returned to the incubator for the designed time points. Well contents was transferred in 25 μL aliquots at time points of 0, 15, 30, 60, 90 and 120 minutes. The aliquots were then mixed with 6 volumes (150 μL) of acetonitrile containing internal standard, IS (100 nM alprazolam, 200 nM caffeine and 100 nM tolbutamide) to terminate the reaction. The mixture was vortex for 5 minutes. Samples were centrifuged for 45 minutes at 3,220 g. An aliquot of 100 μL of the supernatant was diluted by 100 μL ultra-pure water, and the mixture was used for LC/MS/MS analysis. All incubations were performed in duplicate.
Data Analysis: All calculations were carried out using Microsoft Excel. Peak areas were determined from extracted ion chromatograms. In vitro half-life (t1/2) of parent compound was determined by regression analysis of the percent parent disappearance vs. time curve.
The in vitro half-life (in vitro t1/2) was determined from the slope value:
Conversion of the in vitro t1/2 (in min) into the in vitro intrinsic clearance (in vitro CLint, in μL/min/1×10^6 cells) was done using the following equation (mean of duplicate determinations):
V=incubation volume(0.2 mL);
N=number of hepatocytes per well(0.1×10^6 cells).
“+++” indicates a CLint value less than 20 mL/min/Kg, “++” indicates a CLint between 20 and 50 mL/min/Kg, and “+” indicates an CLint above 50 mL/min/Kg.

[3] = PBS pH 1.6, 25° C., read-out: Aq. Solubility at pH = 1.6
[4] = PBS pH 7.4, 25° C., read-out: Aq. Solubility at pH = 7.4

SMILES | solubility at 2 h [1, 3] [µM] | solubility at 2 h [1, 4] [µM] | CLint scaled at 1 μM [2] [mL/min/kg]
Cn1cc(-c2nc(-c3ccc(C(F)(F)F)cn3)cc3c(=O)n(CC(C)(C)O)cnc23)cn1 [Compound 103, 3-(2-hydroxy-2-methylpropyl)-8-(1-methyl-1H-pyrazol-4-yl)-6-(5-(trifluoromethyl)pyridin-2-yl)pyrido[3,4-d]pyrimidin-4(3H)-one] | 0.1 to 1 (≈ 0.0444 to 0.444 µg/mL) | < 0.1 | < 20
C[C@@H](CO)n1cnc2c(-c3cnn(C)c3)nc(-c3ccc(C4CC4)nc3)cc2c1=O [Compound 83] | ≥ 1 | ≥ 1 | < 20
C[C@@H](CO)n1cnc2c(-c3cnsc3)nc(-c3ccc(Cl)cc3)cc2c1=O [Compound 58] | < 0.1 | < 0.1 | < 20
Cn1cc(-c2nc(-c3cnc(C(F)(F)F)nc3)cc3c(=O)n(CC(C)(C)O)cnc23)cn1 [Compound 99] | ≥ 1 | 0.1 to 1 (≈ 0.0445 to 0.445 µg/mL) | < 20
C[C@H](n1cnc2c(-c3cnn(C)c3)nc(-c3ccc(Cl)cc3)cc2c1=O)C(C)(C)O [Compound 30] | – | 0.1 to 1 (≈ 0.0424 to 0.424 µg/mL) | < 20
CNC(=O)[C@H](C)n1cnc2c(-c3cccnc3)nc(-c3ccc(C(F)(F)F)nc3)cc2c1=O [Compound 156, (S)—N-methyl-2-(4-oxo-8-(pyridin-3-yl)-6-(6-(trifluoromethyl)pyridin-3-yl)pyrido[3,4-d]pyrimidin-3(4H)-yl)propanamide] | ≥ 1 | ≥ 1 | < 20
C[C@H](n1cnc2c(-c3cccnc3)nc(-c3cccnc3)cc2c1=O)C(C)(C)O [Compound 34] | ≥ 1 | ≥ 1 | < 20
O=c1c2cc(-c3ccc(Cl)cc3)nc(-c3cccnc3)c2ncn1[C@@H]1COC[C@@H]1O (stereo in doubt) [Compound 71] | ≥ 1 | ≥ 1 | < 20
C[C@@H](CO)n1cnc2c(-c3cnn(C)c3)nc(-c3ccc(C(F)(F)F)nc3)cc2c1=O [Compound 68] | ≥ 1 | ≥ 1 | < 20
Cn1cc(-c2nc(-c3ccc(C(F)(F)F)nc3)cc3c(=O)n(C[C@H](O)C(F)(F)F)cnc23)cn1 [Compound 111, (S)-8-(1-methyl-1H-pyrazol-4-yl)-3-(3,3,3-trifluoro-2-hydroxypropyl)-6-(6-(trifluoromethyl)pyridin-3-y1)pyrido[3,4-d]pyrimidin-4(3H)-one] | 0.1 to 1 (≈ 0.0484 to 0.484 µg/mL) | < 0.1 | < 20
CC(C)(O)Cn1cnc2c(-c3cccnc3)nc(-c3ccc(C(F)(F)F)cn3)cc2c1=O [Compound 105] | ≥ 1 | ≥ 1 | < 20
C[C@@H](CO)n1cnc2c(-c3cnn(C)c3)nc(-c3ccc(OC(F)(F)F)cc3)cc2c1=O [Compound 25] | 0.1 to 1 (≈ 0.0445 to 0.445 µg/mL) | < 0.1 | < 20
O=c1c2cc(-c3ccc(C(F)(F)F)nc3)nc(-c3cccnc3)c2ncn1C[C@H](O)C(F)(F)F [Compound 57] | ≥ 1 | ≥ 1 | < 20
C[C@@H](CO)n1cnc2c(-c3cnn(C)c3)nc(-c3cnc(C(F)(F)F)nc3)cc2c1=O [Compound 95] | ≥ 1 | ≥ 1 | < 20
Cn1cc(-c2nc(-c3ccc(C4CC4)nc3)cc3c(=O)n(CC(C)(C)O)cnc23)cn1 [Compound 82] | ≥ 1 | ≥ 1 | < 20
C[C@@H](CO)n1cnc2c(-c3cnsc3)nc(-c3ccc(C(F)(F)F)nc3)cc2c1=O [Compound 55] | ≥ 1 | ≥ 1 | 20 to 50
C[C@@H](CO)n1cnc2c(-c3cccnc3)nc(-c3ccc(C(F)(F)F)cc3)cc2c1=O [Compound 23] | ≥ 1 | ≥ 1 | < 20
O=c1c2cc(-c3ccc(C(F)(F)F)cn3)nc(-c3cccnc3)c2ncn1C[C@@H](O)C(F)(F)F [Compound 154, (R)-8-(pyridin-3-yl)-3-(3,3,3-trifluoro-2-hydroxypropyl)-6-(5-(trifluoromethyl)pyridin-2-yl)pyrido[3,4-d]pyrimidin-4(3H)-one] | ≥ 1 | ≥ 1 | < 20
C[C@@H](O)Cn1cnc2c(-c3cccnc3)nc(-c3ccc(C(F)(F)F)nc3)cc2c1=O [Compound 112, (R)-3-(2-hydroxypropyl)-8-(pyridin-3-yl)-6-(6-(trifluoromethyl)pyridin-3-yl)pyrido[3,4-d]pyrimidin-4(3H)-one] | ≥ 1 | ≥ 1 | < 20
O=c1c2cc(-c3ccc(C(F)(F)F)nc3)nc(-c3cccnc3)c2ncn1[C@@H]1COC[C@H]1O [Compound 79] | ≥ 1 | ≥ 1 | < 20
O=c1c2cc(-c3ccc(C(F)(F)F)nc3)nc(-c3cccnc3)c2ncn1[C@H]1COC[C@H]1O [Compound 126, 3-((3S,4S)-4-hydroxytetrahydrofuran-3-yl)-8-(pyridin-3-yl)-6-(6-(trifluoromethyl)pyridin-3-yl)pyrido[3,4-d]pyrimidin-4(3H)-one] | ≥ 1 | ≥ 1 | < 20
C[C@@H](n1cnc2c(-c3cnn(C)c3)nc(-c3ccc(Cl)cc3)cc2c1=O)C(C)(C)O [Compound 31] | – | 0.1 to 1 (≈ 0.0424 to 0.424 µg/mL) | < 20
C[C@@H](CO)n1cnc2c(-c3cccnc3)nc(-c3ccc(C(F)(F)F)nc3)cc2c1=O [Compound 12] | ≥ 1 | ≥ 1 | < 20
C[C@@H](CO)n1cnc2c(-c3cncc(F)c3)nc(-c3ccc(OC(F)(F)F)cc3)cc2c1=O [Compound 1, (S)-8-(5-fluoropyridin-3-yl)-3-(1-hydroxypropan-2-yl)-6-(4-(trifluoromethoxy)phenyl)pyrido[3,4-d]pyrimidin-4(3H)-one] | – | 0.1 to 1 (≈ 0.046 to 0.46 µg/mL) | < 20
O=c1c2cc(-c3ccc(Cl)cc3)nc(-c3cccnc3)c2ncn1C[C@@H](O)C(F)(F)F (single isomer, unassigned) [185 enantiomer 1] | ≥ 1 | 0.1 to 1 (≈ 0.0447 to 0.447 µg/mL) | < 20
Cn1cc(-c2nc(-c3ccc(Cl)cc3)cc3c(=O)n([C@H]4COC[C@@H]4O)cnc23)cn1 [Compound 116] | 0.1 to 1 (≈ 0.0424 to 0.424 µg/mL) | 0.1 to 1 (≈ 0.0424 to 0.424 µg/mL) | < 20
Cn1cc(-c2nc(-c3ccc(C(F)(F)F)nc3)cc3c(=O)n([C@H]4COC[C@@H]4O)cnc23)cn1 [Compound 114, 3-((3S,4R)-4-hydroxytetrahydrofuran-3-yl)-8-(1-methyl-1H-pyrazol-4-yl)-6-(6-(trifluoromethyl)pyridin-3-yl)pyrido[3,4-d]pyrimidin-4(3H)-one] | 0.1 to 1 (≈ 0.0458 to 0.458 µg/mL) | 0.1 to 1 (≈ 0.0458 to 0.458 µg/mL) | < 20
C[C@@H](n1cnc2c(-c3cccnc3)nc(-c3ccc(Cl)cc3)cc2c1=O)C(C)(C)O [Compound 33] | – | < 0.1 | < 20
Cn1cc(-c2nc(-c3ccc(Cl)cc3)cc3c(=O)n(CC(C)(C)O)cnc23)cn1 [Compound 21] | ≥ 1 | ≥ 1 | < 20
C[C@H](O)Cn1cnc2c(-c3cnn(C)c3)nc(-c3ccc(C(F)(F)F)cn3)cc2c1=O [Compound 142, (S)-3-(2-hydroxypropyl)-8-(1-methyl-1H-pyrazol-4-yl)-6-(5-(trifluoromethyl)pyridin-2-yl)pyrido[3,4-d]pyrimidin-4(3H)-one] | 0.1 to 1 (≈ 0.043 to 0.43 µg/mL) | 0.1 to 1 (≈ 0.043 to 0.43 µg/mL) | < 20
